Measurements reported in US20130217712A1, “[…] FOR EGFR INHIBITOR TREATMENT” (Hoffmann-La Roche Inc., priority 2007, published 2013).

Assays:
[1] = patients with cancer, 150 mg/day dose; 500 ng/ml is the average concentration targeted for clinical efficacy; cited from earlier work
[2] = system: patients with advanced NSCLC following failure of at least one prior chemotherapy regimen; test: Open-label Phase II predictive marker identification study of Tarceva monotherapy, response by RECIST and survival; type: in vivo, human; conditions: all enrolled patients n=264; oral 150 mg/day
Method: The selection of this dose was based on pharmacokinetic parameters, as well as the safety and tolerability profile of this dose observed in Phase I, II and III trials in heavily pre-treated patients with advanced cancer. Drug levels seen in the plasma of patients with cancer receiving the 150 mg/day dose were consistently above the average plasma concentration of 500 ng/ml targeted for clinical efficacy.
This was an open-label, predictive marker identification Phase II study. The study was conducted in approximately 26 sites in about 12 countries. 264 patients with advanced NSCLC following failure of at least one prior chemotherapy regimen were enrolled over a 12 month period. […] Dose reductions were permitted based on tolerability to drug therapy. Clinical and laboratory parameters were assessed to evaluate disease control and toxicity. Treatment continued until disease progression, unacceptable toxicity or death. The study design is depicted in FIG. 1.
The RECIST (Uni-dimensional Tumor Measurement) criteria were used to evaluate response. […]
A regular status check every 3 months was performed either by a patient's visit to the clinic or by telephone. All deaths were recorded. […]

C#Cc1cccc(Nc2ncnc3cc(OCCOC)c(OCCOC)cc23)c1 [Erlotinib, erlotinib]
drug level in plasma [1]: > 500 ng/mL | Median overall survival [2]: 7.6 (CI 7-9) months | median progression-free survival [2]: 11.3 (CI 8-12) weeks
